Reference: patent publication US11261429B2, “Enriched and expanded human cord blood stem cells for treatment of hematological disorders” (ICAHN SCHOOL OF MEDICINE AT MOUNT SINAI, priority 2013, dated 2022)

Columns and labels:
Type in all cases: cell-based, human
CB CD34+ cells = assay: Ex vivo expansion of CB CD34+ cells with HDACIs, phenotypic analysis by flow cytometry; details: 7 days of culture with cytokines plus HDACI
From the text: CB collections were purchased from the Placental Blood Program at the New York Blood Center. CB-MNCs were isolated by Ficoll-Hypaque density centrifugation, and CD34+ cells were purified by immunotnagnetic selection as previously described (Chaurasia et al., “Chromatin-Modifying Agents Promote the Ex vivo Production of Functional Human Erythroid Progenitor Cells,” Blood 117:4632-4641 (2011), which is hereby incorporated by reference in its entirety). Highly purified (90%-98%) PCs (4.0-5.0×10^4) were cultured in SF Stemline II (Sigma-Aldrich) culture medium or IMDM (Lonza) containing 30% FBS (HyClone Laboratories) supplemented with 150 ng/ml SCF, 100 ng/ml fms-like tyrosine kinase receptor 3 (FLT3 ligand), 100 ng/ml thrombopoietin (TPO), and 50 ng/ml interleukin 3 (IL-3) (R&D Systems) and incubated in a humidified incubator maintained at 37° C. with 5% CO2. […] The cell populations studied and the various conditions under which they were cultured are referred to by specific terms listed in Table 1. Viable PC and cultured cells were enumerated using the trypan blue exclusion method. The fold expansion of CD34+ cells or subpopulations was calculated based on the number of CD34+ cells determined to be present in an individual CB collection and the number of CD34+ cells that would have been generated if all of the CD34+ cells within that primary CB collection were cultured using the various culture conditions described. PC or cultured cells expanded in the presence or absence of HDACIs were stained with an anti-human CD34 mAb or an isotype-matched control mAb and analyzed using a FACSCanto II (BD). CD34+ cells were re-isolated using a CD34+ cell isolation kit, as previously described, for further phenotypic and functional analyses. All mAbs were purchased from BD Biosciences and Cell Signaling Technology. Phenotypic analyses ([…], […], and […]7) of the ex vivo-expanded cells after 7 days in control cultures or cytokines plus an HDACI were performed as previously described (Chaurasia et al., “Chromatin-Modifying Agents Promote the Ex vivo Production of Functional Human Erythroid Progenitor Cells,” Blood 117:4632-4641 (2011), which is hereby incorporated by reference in its entirety).

HDAC1 = assay: HDAC protein levels in CB-MNCs, Western blot densitometry; details: 24 hr, SCR 8 μM, C433 80 μM, VPA 1.25 mM
HDAC2 = assay: as above; details: 24 hr, SCR 8 μM, C433 80 μM, VPA 1.25 mM
HDAC3 = assay: as above; details: 24 hr, SCR 8 μM, C433 80 μM, VPA 1.25 mM
From the text: (§1) Cellular proteins were separated by SDS-PAGE using Novex (Invitrogen) and transferred by iBlot (Invitrogen). The membranes were probed with mAbs against individual histone deacetylases (HDAC1, HDAC2, HDAC3, HDAC4, HDAC5, HDAC6, and β-actin; Cell Signaling Technology) and developed using a chemiluminescence system with HRP-conjugated secondary antibodies (Amersham Biosciences) according to the manufacturer's instructions.

HDAC4 = assay: as above; details: 24 hr, SCR 8 μM, C433 80 μM, VPA 1.25 mM
From the text: as §1

HDAC5 = assay: as above; details: 24 hr, SCR 8 μM, C433 80 μM, VPA 1.25 mM
From the text: as §1

HDAC6 = assay: as above; details: 24 hr, SCR 8 μM, C433 80 μM, VPA 1.25 mM
From the text: as §1

class I and II HDAC = assay: HDAC protein levels in CB-MNCs, Western blot, all HDACs examined; details: after 2 hours of treatment
From the text: as §1

Nc1ccccc1NC(=O)CCCCCCC(=O)Nc1ccccc1 [C433, CAY10433]
percentage of CD34+CD90+ cells (CB CD34+ cells): 70.1%±18.4%
HDAC1 expression relative to b-ACTIN (%) (HDAC1): 24.3 ± 0.4%
HDAC2 expression relative to b-ACTIN (%) (HDAC2): 40.0 ± 8.0%
HDAC3 expression relative to b-ACTIN (%) (HDAC3): 28.0 ± 20.0%
HDAC4 expression relative to b-ACTIN (%) (HDAC4): 23.5 ± 16.5%
HDAC5 expression relative to b-ACTIN (%) (HDAC5): 12.6 ± 1.9%
HDAC6 expression relative to b-ACTIN (%) (HDAC6): 35.8 ± 7.2%
inhibition of HDAC expression (class I and II HDAC): did not inhibit HDAC expression

O=C(CCCCCN1C(=O)c2cccc3cccc(c23)C1=O)NO [SCR, Scriptaid]
percentage of CD34+CD90+ cells (CB CD34+ cells): 73.4%±13.9%
inhibition of HDAC expression (class I and II HDAC): did not inhibit HDAC expression
